Measured values: ChEMBL document CHEMBL2163249, “Exploration of natural compounds as sources of new bifunctional scaffolds targeting cholinesterases and beta amyloid aggregation: the case of chelerythrine” (Bioorg Med Chem, 2012)
Starred links: 1 amine or outer side, 2 acyl side, 3 side chain; linkers in the order of their positions; H or OH if unused. Positions of bridges follow the written chain, without caps; N, C: chain ends. Non-standard residues stand in square brackets, D forms with d. Residues, ends and D or L forms follow the SMILES beside them. Chains are numbered I, II in the order given. Actinocin(9to1) = Cc1c2oc3c(C)ccc(C(=O)[*:1])c3nc-2c(C(=O)[*:2])c(N)c1=O; NMeV = CN[C@H](C(=O)O)C(C)C; Sar = CNCC(=O)O

Columns and labels:
[1] = molecular target: Acetylcholinesterase (Electrophorus electricus) (UniProt O42275); conditions: at 2 mg/mL
Description: Inhibition of electric eel AChE at 2 mg/ml by Ellman's method

[2] = molecular target: Cholinesterase (Equus caballus) (UniProt P81908); conditions: at 2 mg/mL
Cholinesterase (Equus caballus), sequence (P81908 whole entry): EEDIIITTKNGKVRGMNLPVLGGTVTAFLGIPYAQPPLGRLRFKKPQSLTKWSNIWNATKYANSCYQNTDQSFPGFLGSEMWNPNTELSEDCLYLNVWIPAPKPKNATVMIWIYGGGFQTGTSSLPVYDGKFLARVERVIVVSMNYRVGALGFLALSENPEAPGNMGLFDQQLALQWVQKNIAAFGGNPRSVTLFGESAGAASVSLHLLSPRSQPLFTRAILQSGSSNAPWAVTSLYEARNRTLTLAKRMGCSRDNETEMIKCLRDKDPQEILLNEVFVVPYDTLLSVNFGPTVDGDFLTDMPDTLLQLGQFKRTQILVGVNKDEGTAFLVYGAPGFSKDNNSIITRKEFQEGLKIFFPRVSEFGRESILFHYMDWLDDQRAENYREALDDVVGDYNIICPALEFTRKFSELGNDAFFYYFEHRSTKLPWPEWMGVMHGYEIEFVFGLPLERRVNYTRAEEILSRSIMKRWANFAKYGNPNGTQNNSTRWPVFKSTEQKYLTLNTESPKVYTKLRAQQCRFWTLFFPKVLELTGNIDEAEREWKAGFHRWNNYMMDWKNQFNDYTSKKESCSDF
Description: Inhibition of horse BChE at 2 mg/ml by Ellman's method

| Compound | inhibition [1] | inhibition [2] |
| --- | --- | --- |
| COC(=O)[C@@H]1[C@H]2C[C@H]3c4[nH]c5ccccc5c4CCN3C[C@@H]2CC[C@@H]1O | 16.2% | -2.5% |
| COc1cc2c(c(OC)c1OC)-c1c(cc3c(c1O)OCO3)C[C@H](C)[C@](C)(O)[C@H]2OC(=O)c1ccccc1 | 5.31% | -0.32% |
| CC[C@@H]1C(=O)OC[C@@H]1Cc1cncn1C | 20% | 1.99% |
| C[C@@H]1O[C@@H](OC[C@H]2O[C@@H](Oc3cc(O)c4c(c3)O[C@H](c3ccc(O)c(O)c3)CC4=O)[C@H](O)[C@@H](O)[C@@H]2O)[C@H](O)[C@H](O)[C@H]1O | 21.5% | 1.98% |
| O=c1cccc2n1C[C@@H]1CNC[C@H]2C1 | 2.17% | -3.85% |
| COc1ccc([C@@H]2CC(=O)c3c(O)cc(O[C@@H]4O[C@H](CO)[C@@H](O)[C@H](O)[C@H]4O[C@@H]4O[C@@H](C)[C@H](O)[C@@H](O)[C@H]4O)cc3O2)cc1O | 4.86% | 0.1% |
| CCCCC1OC(=O)C2=CCCCC21 (configuration not stated) | -0.57% | 4.12% |
| CC[C@H]1CN2CCc3cc(OC)c(OC)cc3[C@@H]2C[C@@H]1C[C@H]1NCCc2cc(O)c(OC)cc21 | 11.9% | -6.9% |
| COc1ccc(C[C@H]2c3cc(OC)c(OC)cc3CC[N+]2(C)C)cc1OC | 28.5% | 2.85% |
| COc1cc2c3cc1Oc1cc(ccc1O)C[C@@H]1c4c(cc(OC)c(O)c4Oc4ccc(cc4)C[C@@H]3N(C)CC2)CC[N+]1(C)C | 5.5% | 3.03% |
| Cc1cc2cc3c(C)cc(=O)oc3c(C)c2o1 | 14.3% | 2.42% |
| C[N+]1([O-])[C@@H]2C[C@H](OC(=O)[C@H](CO)c3ccccc3)C[C@@H]1[C@H]1O[C@H]12 (some centres not stated) | -6.51% | -1.85% |
| CC[C@@]1(O)C(=O)OCc2c1cc1n(c2=O)Cc2cc3cc(O)ccc3nc2-1 | -5.24% | 6.63% |
| C=C1C(=O)[C@]23[C@H](O)[C@H]1CC[C@H]2[C@@]12CO[C@]3(O)[C@@H](O)[C@@H]1C(C)(C)CC[C@@H]2O | 24.7% | 0.03% |
| C[C@@H]1C(=O)O[C@H]2[C@H](O)[C@@]34[C@H]5C[C@@H](C(C)(C)C)[C@]36[C@@H](OC(=O)[C@@H]6O)O[C@@]4(C(=O)O5)[C@@]12O | -7.35% | 9.99% |
| O=C1CCC[C@@H]2[C@H]3CCCN4CCC[C@@H](CN12)[C@@H]34 | -1.14% | 22.4% |
| COc1cc2c(c(OC)c1OC)-c1ccc(OC)c(=O)cc1[C@@H](NC(C)=O)CC2 | 0.14% | 0.1% |
| COc1cc2c3cc1Oc1c(OC)c(OC)cc4c1[C@@H](Cc1ccc(O)c(c1)Oc1ccc(cc1)C[C@@H]3N(C)CC2)N(C)CC4 | 11.4% | 68.5% |
| CCCCC[C@H](O)/C=C/[C@@H]1[C@@H](C/C=C\CCCC(=O)O)[C@@H](O)C[C@H]1O | 12.9% | 5.03% |
| C[C@@H]1O[C@@H](O[C@@H]2[C@@H](O)[C@H](O)[C@@H](CO)O[C@H]2c2c(O)cc(O)c3c(=O)cc(-c4ccc(O)cc4)oc23)[C@H](O)[C@H](O)[C@H]1O | 25.9% | -3.3% |
| CCOC(=O)C1=C[C@]2(CC)CCCN3CCc4c(n1c1ccccc41)[C@@H]32 | 12.3% | 29.1% |

| Compound | inhibition [1] | inhibition [2] |
| --- | --- | --- |
| CC[C@H]1CN2CCc3cc(OC)c(OC)cc3[C@@H]2C[C@@H]1C[C@H]1NCCc2cc(OC)c(OC)cc21 | 13.7% | 1.38% |
| COC[C@H]1OC(=O)c2coc3c2[C@@]1(C)C1=C(C3=O)[C@@H]2CCC(=O)[C@@]2(C)C[C@H]1OC(C)=O | 16.2% | -6.29% |
| CC[C@@]1(O)C(=O)OCc2c1cc1n(c2=O)Cc2cc3ccccc3nc2-1 | 14.1% | 3.9% |
| C=C[C@H]1CN2CC[C@H]1C[C@@H]2[C@@H](O)c1ccnc2ccccc12 | 5.94% | 9.07% |
| CC[C@]1(O)C[C@@H]2CN(CCc3c([nH]c4ccccc34)[C@@](C(=O)OC)(c3cc4c(cc3OC)N(C)[C@H]3[C@@](O)(C(=O)OC)[C@H](OC(C)=O)[C@]5(CC)C=CCN6CC[C@]43[C@@H]65)C2)C1 | 15.4% | 0.36% |
| O=c1c(O)c(-c2ccc(O)c(O)c2)oc2cc(O)cc(O)c12 | 18.1% | 6.73% |
| CC1=C(/C=C/C(C)=C\C=C\C(C)=C\C(=O)O)C(C)(C)CCC1 | 14.3% | -2.78% |
| CCCCCCC(=O)CCCCCC/C=C/C[C@@H](O)[C@H](O)[C@@](N)(CO)C(=O)O | -8.15% | 1.5% |
| O=c1cc(-c2ccc(O)cc2)oc2c(O[C@@H]3O[C@H](CO)[C@@H](O)[C@H](O)[C@H]3O)c(O)c(O[C@@H]3O[C@H](CO)[C@@H](O)[C@H](O)[C@H]3O)c(O)c12 | 22.2% | 1.92% |
| C=C(C)[C@@H]1CC[C@]2(CO)CC[C@]3(C)[C@H](CC[C@@H]4[C@@]5(C)CC[C@H](O)C(C)(C)[C@@H]5CC[C@]43C)[C@@H]12 | 7.09% | 0.47% |
| COc1ccc2c(c1OC)C(=O)OC2C1c2c(cc3c(c2OC)OCO3)CCN1C (racemic) | -5.54% | 3.34% |
| CN1C2CCCC1CC(=O)C2 | 16.5% | 1.42% |
| C/C=C(/C)C(=O)O[C@H]1C(C)=C2[C@H]([C@@H]1OC(=O)CCCCCCC)[C@@](C)(OC(C)=O)C[C@H](OC(=O)CCC)[C@@]1(O)[C@H]2OC(=O)[C@@]1(C)O | 9.89% | 0.82% |
| CC1(C)CCC[C@]2(C)[C@H]3CC(=O)O[C@]3(C)CC[C@@H]12 | -6.49% | -1.03% |
| CN1CCc2cc3c(cc2[C@H]1[C@@H]1OC(=O)c2c1ccc1c2OCO1)OCO3 | 20.7% | 0.63% |
| Cc1c2c(c(O)c3c(O)cccc13)C(=O)O[C@H]2[C@@H]1[C@H](O)C(=O)C(C(N)=O)=C(O)[C@H]1N(C)C | 16.9% | 7.3% |
| CCCCCCCCCCCCCC[C@@H](O)[C@@H](O)[C@@H](N)CO | 24.4% | 7.46% |
| O=c1cc(-c2ccc(O)cc2)oc2c([C@@H]3O[C@H](CO)[C@@H](O)[C@H](O)[C@H]3O)c(O)cc(O)c12 | 3.3% | 2.26% |
| C=C1C(=O)[C@]23[C@H](CC[C@@H]1[C@@H]2O)[C@]12CO[C@@]3(O)[C@H](O)[C@H]1C(C)(C)CC[C@@H]2O | -3.57% | -8.92% |
| COc1cc2c(cc1CC=C(C)C)C(=O)C[C@@H](c1ccc(O)cc1)O2 | 23.2% | 4.89% |
| CC1=NCCc2c1[nH]c1cc(O)ccc21 | 41.8% | 34.5% |

| Compound | inhibition [1] | inhibition [2] |
| --- | --- | --- |
| CCCCC[C@H](O)CC(=O)CCc1ccc(O)c(OC)c1 | 1.06% | -2.06% |
| CO[C@H]1C[C@@H]2CC[C@@H](C)[C@@](O)(O2)C(=O)C(=O)N2CCCC[C@H]2C(=O)O[C@H]([C@H](C)C[C@@H]2CC[C@@H](O)[C@H](OC)C2)CC(=O)[C@H](C)/C=C(\C)[C@@H](O)[C@@H](OC)C(=O)[C@H](C)C[C@H](C)/C=C/C=C/C=C/1C | 18.7% | 4.03% |
| BLEOMYCIN | 10.2% | 10.8% |
| CO[C@H]1/C=C/O[C@@]2(C)Oc3c(C)c(O)c4c(O)c(c(/C=N/N5CCN(C)CC5)c(O)c4c3C2=O)NC(=O)/C(C)=C\C=C\[C@H](C)[C@H](O)[C@@H](C)[C@@H](O)[C@@H](C)[C@H](OC(C)=O)[C@@H]1C | 16.2% | 1.88% |
| COc1ccc(CC2NCCc3cc(OC)c(OC)cc32)cc1OC (configuration not stated) | 4.06% | 7.36% |
| Cc1cc(O)c2c(=O)c3c(O)cc(O)c4c5c(O)cc(O)c6c(=O)c7c(O)cc(C)c8c1c2c(c34)c(c78)c65 | -7.15% | 14.3% |
| C/C=C1\[C@H]2C=C(C)C[C@]1(N)c1ccc(=O)[nH]c1C2 | 97.3% | 11.8% |
| Cc1c2oc3c(C)ccc(C(=O)N[C@@H]4C(=O)N[C@H](C(C)C)C(=O)N5CCC[C@H]5C(=O)N(C)CC(=O)N(C)[C@@H](C(C)C)C(=O)O[C@@H]4C)c3nc-2c(C(=O)N[C@@H]2C(=O)N[C@H](C(C)C)C(=O)N3CCC[C@H]3C(=O)N(C)CC(=O)N(C)[C@@H](C(C)C)C(=O)O[C@@H]2C)c(N)c1=O (I: T[dV]P[Sar][NMeV] / II: T[dV]P[Sar][NMeV]; ester I:1-I:C, II:1-II:C; linker I:N-II:N via Actinocin(9to1)) | -2.56% | 3.31% |
| CC1=C2C(=O)[C@H]3[C@@H](CC=C4C[C@@H](O)CC[C@@]43C)[C@@H]2CC[C@]12O[C@@H]1C[C@H](C)CN[C@H]1[C@H]2C | -9.1% | 5.64% |
| C/C=C(/C)C(=O)O[C@H]1C[C@@]2(C)O[C@H]2[C@@H](O)[C@@]2(C)CC[C@@](O)(C(C)C)[C@H]12 | 17.2% | -1.91% |
| CC1(C)[C@@H](O)C[C@H]2[C@](C)(O)[C@@H]3CC[C@@H]4[C@@H](O)[C@@]3(C[C@@H](O)[C@@]21O)C[C@@]4(C)O | -8.91% | 4.52% |
| CC[C@H]1CC[C@@]2(C)CN(CC)[C@@H]3[C@@H]4[C@@H](O)[C@H]2[C@@]13[C@@H]1C[C@@H]2CC[C@@]4(O)[C@H]1C(=O)O2 | 22.5% | -3.58% |
| C/C1=C\CC(C)(C)/C=C/C(=O)/C(C)=C/CC1 | -4.84% | 4.2% |
| C[C@@H]1O[C@@H](OC[C@H]2O[C@@H](Oc3c(-c4ccc(O)c(O)c4)oc4cc(O)cc(O)c4c3=O)[C@H](O)[C@@H](O)[C@@H]2O)[C@H](O)[C@H](O)[C@H]1O | -0.25% | 4.32% |
| CCCCCCCCCCCCC/C=C/[C@@H](O)[C@H](CO)NC(=O)CCCCC | 9.07% | 4.36% |
| CN1[C@@H]2CC[C@H]1C[C@@H](OC(=O)C(CO)c1ccccc1)C2 (some centres not stated) | 15.2% | 4.01% |
| C[C@@H]1NCCc2cc(O)c(O)cc21 | 19.3% | -1.84% |
| C[C@H]1C/C=C/[C@H]2[C@@H]3O[C@]3(C)[C@@H](C)[C@H]3[C@H](Cc4ccccc4)NC(=O)[C@]32OC(=O)O/C=C/[C@@](C)(O)C1=O | 5.91% | 9.25% |
| C[C@@]1(CO)[C@H](O)CC[C@@]2(C)[C@H]1CC[C@H]1C[C@@H]3C[C@@]12CC[C@]3(O)CO | 8.45% | 13.5% |
